Key:
human CD4+ T cell clones = test: Survival experiment with CRISPR/Cas9 gene knockout T cell clones; format: cell-based
Protocol: Naïve CD4 T cells were activated with plate-bound CD3 and CD28 antibodies. 48 h after activation IL-2 was added to culture media (500 U ml^−1). After a further 3 days of culturing, cells were washed, counted and equal cell numbers were plated in medium devoid of IL-2. The withdrawal medium was no longer supplemented with e.g. L-arginine. Cell viability was assessed with annexin V.
Two to four short guide RNAs (sgRNAs) (Table 1) per gene were designed using the online tool provided by the Zhang laboratory (tools.genome-engineering.org). Oligonucleotide pairs with BsmBI-compatible overhangs were annealed and cloned into the lentiviral vector lentiCRISPR v2 (Addgene plasmid #52961) (Sanjana et al., 2014). […]
To screen for clones with disrupted target genes, individual clones were lysed with sample buffer containing 80 mM Tris pH 6.8, 10.5% glycerol, 2% SDS and 0.00004% Bromophenol blue. Lysate of 100,000 cells was separated by SDS-PAGE followed, blotted onto PVDF membranes and analyzed with antibodies to target proteins, Baz1B (Abeam, ab50850), PSIP1 (Bethyl, A300-848A), DDX17 (Abeam, ab180190), PTPN6 (Santa Cruz, sc-287) or TSN (Sigma, HPA059561). […] To screen for clones with disrupted B2M, single cell clones were stained with an antibody to MHC-1 (eBioscience, HLA-ABC-FITC) and analyzed by flow cytometry.

Naïve CD8+ OT-I T cells = test: Tcm-like phenotype and IFN-γ of OT-I T cells after in vitro priming; format: cell-based, mouse
Source text: FIG. 7. CD8+ T cells with increased L-arginine levels display improved anti-tumor activity in vivo. (A) Survival of activated mouse CD8+OT-I T cells (4 d) after IL-2 withdrawal. Data points represent the difference between the percentage of living T cells from cultures performed in L-Arg medium or Ctrl medium; n=11. (B) CD90.1+CD45.1/2+ and CD90.1+CD45.1+ naïve CD8+ OT-I T cells were activated for 4 days in Ctrl medium or L-Arg medium, respectively. Equal numbers of the congenically marked activated OT-I cells were co-transferred into Cd3e−/− mouse and the number of living T cells was measured in pooled spleen and lymph nodes at the indicated time points; n=3 at each time point. (C) Naïve CD8+ OT-I T cells were activated with CD3+CD28 antibodies in L-Arg medium or control (Ctrl) medium. Five days after activation, the percentage of Tcm-like cells (CD44hi, CD62L+) was measured by flow cytometry; n=15. (D) Naïve OT-I CD8+ T cells were activated in L-Arg medium or Ctrl medium and IFN-γ was quantified in culture supernatants after 5 days; n=15. (E) Same as in (D) but T cells were re-activated on day 5 day with PMA/Ionomycin; n=15. (F, G) B16.OVA melanoma cells were injected into C57BL/6 mice and tumors were allowed to grow for 10 days. Naïve OT-I CD8+ T cells were activated in vitro in L-Arg medium or Ctrl medium and injected into tumor bearing mice. Tumor burden (F) and survival (G) were assessed over time. Data are representative of three independent experiments, each performed with 7-9 mice per group. (H) B16.OVA melanoma cells were injected into C57BL/6 mice and tumors were allowed to grow for 6 clays. At day 6, naïve CD8+ OT-I T cells were transferred into tumor bearing mice and at day 7 mice were immunized with OVA peptide. Starting one day before the T cell transfer, PBS or L-arginine (1.5 mg/g body weight) was orally administered daily; n=19 from three independent experiments. Bars represent the s.e.m. *p<0.05, **p<0.01, ***p<0.001, ****p<0.0001 (Student's t-test). In (G) *p<0.05 as determined by log-rank test comparison between curves. […]

Question: What does the source list for `N=C(N)NCCC[C@H](N)C(=O)O` [L-arginine]?
Answer: L-arginine's beneficial effect on T cell survival in BAZ1B, PSIP1 and TSN knockout clones (human CD4+ T cell clones; knockout of BAZ1B, PSIP1 and TSN): significantly reduced; effect of L-arginine on T cell survival in PTPN6 (Shp-1) or B2M knockout clones (human CD4+ T cell clones; knockout of PTPN6 (Shp-1) or B2M): did not alter; Tcm-like state (CD44hi, CD62L+) (Naïve CD8+ OT-I T cells; five days after activation in L-Arg medium): maintained a Tcm-like state; IFN-γ production upon reactivation (Naïve CD8+ OT-I T cells; re-activated on day 5 with PMA/Ionomycin): even more IFN-γ than controls; IFN-γ secretion after in vitro priming (Naïve CD8+ OT-I T cells; supernatants after 5 days): secreted less IFN-γ than controls
